Results on 16 molecules are retold here after patent US8389541B2, “Inhibitors of protein tyrosine kinase activity” (MethylGene Inc., priority 2007, dated 2013).

In one experiment the test system is Panc-1 tumor. Briefly: In vivo solid tumor disease model, Panc-1. Set-up: species or system mice. To be noted: Panc-1, 20 mg/kg orally daily, 13 days.
A further experiment has as its system U87MG tumor. The experiment can be described thus: In vivo solid tumor disease model, U87MG. Also on record: species or system mice. To be noted: Mus musculus, U-87 MG, po, 20 mg/kg orally daily, read-out: Tumor Growth Inhibition (%). The text has this:
(§1) This test measures the capacity of compounds to inhibit solid tumor growth.
(§2) Tumor xenografts are established in the flank of female athymic CD1 mice (Charles River Inc.), by subcutaneous injection of 1×106 U87, A431 or SKLMS cells/mouse. Once established, tumors are then serially passaged s.c. in nude mice hosts. Tumor fragments from these host animals are used in subsequent compound evaluation experiments. For compound evaluation experiments female nude mice weighing approximately 20 g are implanted s.c. by surgical implantation with tumor fragments of ˜30 mg from donor tumors. When the tumors are approximately 100 mm3 in size (˜7-10 days following implantation), the animals are randomized and separated into treatment and control groups. Each group contains 6-8 tumor-bearing mice, each of which is ear-tagged and followed individually throughout the experiment.
(§3) Mice are weighed and tumor measurements are taken by calipers three times weekly, starting on Day 1. These tumor measurements are converted to tumor volume by the well-known formula (L+W/4)3 4/3π. The experiment is terminated when the control tumors reach a size of approximately 1500 mm^3. In this model, the change in mean tumor volume for a compound treated group/the change in mean tumor volume of the control group (non-treated or vehicle treated)×100 (ΔT/ΔC) is subtracted from 100 to give the percent tumor growth inhibition (% TGI) for each test compound. In addition to tumor volumes, body weight of animals is monitored twice weekly for up to 3 weeks.

The next experiment concerns SKLMS40 tumor. Briefly: In vivo solid tumor disease model, SKLMS40. Also on record: species or system mice. The conditions noted are these: Mus musculus, po, SKLMS40, 20 mg/kg orally daily, read-out: Tumor Growth Inhibition (%).
Text: as §1, §2, §3

For another experiment, the system named is CNV progression. The experiment can be described thus: In vivo choroidal neovascularization (CNV) model, laser-induced. To be noted: Brown-Norway rats, intravitreal injection 30 and/or 100 nmol/eye on Day 1 and/or Day 3 and/or Day 7, CNV area on Day 10. The text has this:
This test measures the capacity of compounds to inhibit CNV progression. CNV is the main cause of severe vision loss in patients suffering from age-related macular degeneration (AMD).
Male Brown-Norway rats (Japan Clea Co., Ltd.) were used in these studies.
Rats were anesthetized by intraperitoneal injection of pentobarbital, and the right pupil was dilated with 0.5% tropicamide and 0.5% phenylephrine hydrochloride. The right eye received 6 laser burns between retinal vessels using a slit lamp delivery system of Green laser Photocoagulator (Nidex Inc., Japan), and microscope slide glass with Heaton™ (AMO Inc) used as a contact lens. The laser power was 100 or 200 mW for 0.1 second and spot diameter was 100 μm. At the time of laser burn, bubble production was observed, which is an indication of rupture of Bruch's membrane which is important for CNV generation.
Rats were divided into the groups based on their body weight using SAS software (SAS institute Japan, R8.1) after laser irradiation (Day 0). After animals were anesthetized, and the right pupil dilated (as above mentioned), the right eye of the animal received the compound or vehicle by intravitreal injection (5 or 10 μL/eye) at doses of 30 and/or 100 nmol/eyeon Day 1 and/or Day 3 and/or Day 7. The compounds were dissolved or suspended in CBS, PBS, or other adequate vehicles before injection.
On Day 10, the animals were anesthetized with ether, and high molecular weight fluorescein isothiocyanate (FITC)-dextran (SIGMA, 2×10^6 MW) was injected via a tail vein (20 mg/rat). About 30 min after FITC-dextran injection, animals were euthanized by ether or carbon dioxide, and the eyes were removed and fixed with 10% formaline neutral buffer solution. After over 1 hour of fixation, RPE-choroid-sclera flat mounts were obtained by removing cornea, lens and retina from the eyeballs. The flat mounts were mounted in 50% glycerol on a microscope slide, and the portion burned by laser was photographed using a fluorescence microscope (Nikon Corporation, excitation filter:465-495 nm, absorption filter:515-555 nm). The CNV area was obtained by measurement of hyper-fluorescence area observed on the photograph using Scion image.
The average CNV area of 6 burns was used as an individual value of CNV area, and the average CNV area of compound treated group was compared with that of the vehicle-treated group. […]

For another experiment, the system named is MKN45 tumor. Briefly: In vivo solid tumor disease model, MKN45. Also on record: species or system mice. To be noted: Mus musculus, MKN-45, po, 312 h; MKN45, 20 mg/kg orally daily, 13 days; read-out: Tumor Growth Inhibition (%).
A further experiment deals with A549 tumor. The experiment can be described thus: In vivo solid tumor disease model, A549. Set-up: species or system mice. To be noted: A549, 20 mg/kg orally daily, 12 days.

Like-named read-outs stand apart in the source and are kept apart here. Bounds are passed on as bounds.

With `COCCNCc1ccc(-c2cc3nccc(Oc4ccc(NC(=O)C5(C(=O)Nc6ccc(F)cc6)CC5)cc4F)c3s2)o1`, in the experiment on Panc-1 tumor, the “Tumor Growth Inhibition (%)” value is on record as “D (tumor growth inhibition of ≧75%)”. As for `COCCNCc1cccc(-c2cc3nccc(Oc4ccc(NC(=O)C5(C(=O)Nc6ccc(F)cc6)CC5)cc4F)c3s2)n1`, the inhibition in vivo at 20 mg/kg with U87MG tumor (312 h, 13 days) was at least 75%. With `COCCNCc1ccc(-c2cc3nccc(Oc4ccc(NC(=S)NC(=O)Cc5ccc(F)cc5)c(OC)c4)c3s2)nc1`, the inhibition in vivo at 20 mg/kg in the experiment with SKLMS40 tumor (360 h, 15 days) was in the range of 25 to 50%. The same measure, in the same setting: the same measure for `COCCNCc1ccc(-c2cc3nccc(Oc4ccc(NC(=O)Nc5cc(C)on5)c(OC)c4)c3s2)nc1`: at least 75%; for `COCCNCc1ccc(-c2cc3nccc(Oc4ccc(NC(=O)C5(C(=O)Nc6ccc(F)cc6)CC5)c(OC)c4)c3s2)nc1`: 25 to 50%. Take `COCCNCc1ccc(-c2cc3nccc(Oc4ccc(NC(=O)NC5CC5)cc4F)c3s2)nc1` [170(277), 1-Cyclopropyl-3-(3-fluoro-4-(2-(5-((2-methoxyethylamino)methyl)pyridin-2-yl)thieno[3,2-b]pyridin-7-yloxy)phenyl)urea]: the “% Inhibition of CNV Progression” value in the experiment on CNV progression was “A (greater than or equal to 30% inhibition)”. `CCOCCNCc1ccc(-c2cc3nccc(Oc4ccc(NC(=O)Nc5cc(C)ccc5F)cc4F)c3s2)nc1` [173(280), 1-(4-(2-(5-((2-ethoxyethylamino)methyl)pyridin-2-yl)thieno[3,2-b]pyridin-7-yloxy)-3-fluorophenyl)-3-(2-fluoro-5-methylphenyl)urea]: in the experiment with CNV progression, the “% Inhibition of CNV Progression” value is on record as “A (greater than or equal to 30% inhibition)”. Same read-out and setting: the same measure for `NCCCOCCOCCOCCCNCc1ccc(-c2cc3nccc(Oc4ccc(NC(=O)Nc5cc(C(F)(F)F)ccc5F)cc4F)c3s2)nc1` [177(284), 1-(4-(2-(5-(15-Amino-6,9,12-trioxa-2-azapentadecyl)pyridin-2-yl)thieno[3,2-b]pyridin-7-yloxy)-3-fluorophenyl)-3-(2-fluoro-5-(trifluoromethyl)phenyl)urea]: “A (greater than or equal to 30% inhibition)”. Turning to `COCCNCCn1cnc(-c2cc3nccc(Oc4ccc(NC(=S)NC(=O)Cc5ccc(F)cc5)cc4F)c3s2)c1` [drawing 366], the inhibition in vivo at 20 mg/kg in the experiment on U87MG tumor (288 h, 12 days) was below 25%. `COCCNCCn1cc(-c2cc3nccc(Oc4ccc(NC(=S)NC(=O)Cc5ccccc5)cc4F)c3s2)cn1` [drawing 367]: the inhibition in vivo at 20 mg/kg in the experiment on U87MG tumor (240 h, 10 days) lay in the range of 25 to 50%. `COCCNCc1ccc(-c2cc3nccc(Oc4ccc(NC(=O)C5(C(=O)Nc6ccccc6)CC5)cc4F)c3s2)o1` [drawing 368]: in the experiment on SKLMS40 tumor (312 h, 13 days), the inhibition in vivo at 20 mg/kg was in the range of 50 to 75%.

Consider `CS(=O)(=O)CCNCc1ccc(-c2cc3nccc(Oc4ccc(NC(=O)C5(C(=O)Nc6ccccc6)CC5)cc4F)c3s2)cc1` [drawing 370], for which the inhibition in vivo at 20 mg/kg in the experiment with U87MG tumor (240 h, 10 days) was in the range of 50 to 75%.

As for `COCCNCc1cnc(-c2cc3nccc(Oc4ccc(NC(=S)NC(=O)Cc5ccccc5)cc4F)c3s2)n1C` [drawing 371], the inhibition in vivo at 20 mg/kg is 50 to 75% in the experiment on MKN45 tumor and below 25% with SKLMS40 tumor (312 h, 13 days). Further, the “Tumor Growth Inhibition (%)” value with A549 tumor is listed as “B (tumor growth inhibition of ≧25% but <50%)”. As to `COCCNCc1ccc(-c2cc3nccc(Oc4ccc(NC(=O)CC(=O)N(C)c5ccccc5)cc4F)c3s2)nc1` [drawing 373], the inhibition in vivo at 20 mg/kg in the experiment with MKN45 tumor was 50 to 75%; in the experiment on U87MG tumor (288 h, 12 days), 25 to 50%; in the experiment on SKLMS40 tumor (312 h, 13 days), below 25%. Further, in the experiment on A549 tumor, the “Tumor Growth Inhibition (%)” value is “C (tumor growth inhibition of ≧50% but <75%)”. Taken in the same sequence, the figures for `COCCNCc1ccc(-c2cc3nccc(Oc4ccc(NC(=O)C5(C(=O)Nc6ccccc6)CC5)cc4F)c3s2)nc1` [drawing 374] were at least 75%, at least 75%, 50 to 75% and “C (tumor growth inhibition of ≧50% but <75%)”. Regarding `COCCNCc1ccc(-c2cc3nccc(Oc4ccc(NC(=O)CC(=O)N(C)c5ccc(F)cc5)cc4F)c3s2)nc1` [drawing 375], the inhibition in vivo at 20 mg/kg in the experiment on MKN45 tumor lay in the range of 25 to 50%. For the same molecule, the “Tumor Growth Inhibition (%)” value in the experiment with A549 tumor is on record as “A (tumor growth inhibition of less than 25%)”.
